# Test results from patent publication US20240425524A1, “SPIROTRICYCLE RIPK1 INHIBITORS AND METHODS OF USES THEREOF” (Merck Sharp & Dohme LLC, priority 2021, published 2024).
# Target: RIPK1 (Homo sapiens (Human), UniProt Q13546)
# Test: RIPK1-ADP-Glo Enzymatic Assay
# Format: biochemical
# Conditions: recombinant GST-RIPK1 kinase domain (residues 1-327), 25 nM, ten-point titration, 30 minutes pre-incubation
# How it was run: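 GST-RIPK1 kinase domain (residues 1-327, Sf21-expressed; 25 nM final) was pre-incubated 30 min at ambient temperature with compound (10-point 1:3 series from 100000 nM, 1% DMSO) in HEPES pH 7.3 buffer with 20 mM MgCl2. The reaction was started with 900 μM ATP (addition solution) and 3 μM dephosphorylated MBP and ran 150 min. Read-out was ADP-Glo luminescence, with EC50 from a four-parameter fit.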
# Chain of RIPK1 (Q13546 1-327): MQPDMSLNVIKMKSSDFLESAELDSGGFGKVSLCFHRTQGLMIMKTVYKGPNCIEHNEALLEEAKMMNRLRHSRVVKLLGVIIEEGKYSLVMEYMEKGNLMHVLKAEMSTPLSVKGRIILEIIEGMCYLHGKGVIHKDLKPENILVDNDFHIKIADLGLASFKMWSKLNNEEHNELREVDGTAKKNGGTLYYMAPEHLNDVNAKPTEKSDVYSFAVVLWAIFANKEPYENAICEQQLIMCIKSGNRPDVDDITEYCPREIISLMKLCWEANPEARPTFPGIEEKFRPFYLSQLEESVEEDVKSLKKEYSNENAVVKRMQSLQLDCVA
row,EC50 [nM],SMILES
1,27,"N#Cc1cnc(N2CCC3(CC2)CN2CC[C@@H](c4cc(F)cc(F)c4)N2C3=O)cn1 [Example 2.19, (S)-5-(7′-(3,5-difluorophenyl)-1′-oxodihydro-l′H,3′H,5′H-spiro[piperidine-4,2′-pyrazolo[1,2-a]pyrazol]-1-y1)pyrazine-2-carbonitrile]"
2,366,"O=C1N2[C@H](c3cc(F)cc(F)c3)CCN2CC12CCN(c1noc3ccccc13)CC2 [Example 1.81, (S)-1-(benzo[d]isoxazol-3-yl)-7′-(3,5-difluorophenyl)dihydro-1′H,3′H,5′H-spiro[piperidine-4,2′-pyrazolo[1,2-a]pyrazol]-1′-one]"
3,50,"O=C(c1cc(F)ccc1Cl)N1CCC2(CC1)CN1CC[C@@H](c3cc(F)cc(F)c3)N1C2=O [Example 4.20, (S)-1-(2-chloro-5-fluorobenzoyl)-7′-(3,5-difluorophenyl) dihydro-1′H,3′H,5′H-spiro[piperidine-4,2′-pyrazolo[1,2-a]pyrazol]-l′-one]"
4,73,"N#Cc1nccc(N2CCC3(CC2)CN2CC[C@@H](c4cc(F)cc(F)c4)N2C3=O)n1 [Example 1.78, (S)-4-(7′-(3,5-difluorophenyl)-1′-oxodihydro-1′H,3′H,5′H-spiro[piperidine-4,2′-pyrazolo[1,2-a]pyrazol]-1-yl)pyrimidine-2-carbonitrile]"
5,43,"Cc1nc(N2CCC3(CC2)CN2CC[C@@H](c4cc(F)cc(F)c4)N2C3=O)ccc1F [Example 11.2, (S)-7′-(3,5-difluorophenyl)-1-(5-fluoro-6-methylpyridin-2-yl)dihydro-1′H,3′H,5′H-spiro[piperidine-4,2′-pyrazolo[1,2-a]pyrazol]-l′-one]"
6,28,"O=C1N2[C@H](c3cc(F)cc(F)c3)CCN2CC12CCN(c1cccc(F)n1)CC2 [Example 1.71, (S)-7′-(3,5-difluorophenyl)-1-(6-fluoropyridin-2-yl)dihydro-1′H,3′H,5′H-spiro[piperidine-4,2′-pyrazolo[1,2-a]pyrazol]-1′-one]"
7,30,"O=C1N2[C@H](c3cc(F)cc(F)c3)CCN2CC12CCN(c1nccn3ncnc13)CC2 [Example 1.79, (S)-1-([1,2,4]triazolo[1,5-a]pyrazin-8-yl)-7′-(3,5-difluorophenyl)dihydro-1′H,3′H,5′H-spiro[piperidine-4,2′-pyrazolo[1,2-a]pyrazol]-1′-one]"
8,35,"N#Cc1cnc(N2CCC3(CC2)CN2CC[C@@H](c4cc(F)cc(F)c4)N2C3=O)nc1 [Example 1.76, (S)-2-(7′-(3,5-difluorophenyl)-1′-oxodihydro-1′H,3′H,5′H-spiro[piperidine-4,2′-pyrazolo[1,2-a]pyrazol]-1-yl)pyrimidine-5-carbonitrile]"
9,23,"O=C(c1ccc(Cl)c(F)c1)N1CCC2(CC1)CN1CC[C@@H](c3cc(F)cc(F)c3)N1C2=O [Example 4.23, (S)-1-(4-chloro-3-fluorobenzoyl)-7′-(3,5-difluorophenyl) dihydro-1′H,3′H,5′H-spiro[piperidine-4,2′-pyrazolo[1,2-a]pyrazol]-l′-one]"
10,830,"O=C1N2[C@H](c3cc(F)cc(F)c3)CCN2CC12CCN(S(=O)(=O)c1ccccc1)CC2 [Example 5.3, (S)-7′-(3,5-difluorophenyl)-1-(phenylsulfonyl) dihydro-l′H,3′H,5′H-spiro[piperidine-4,2′-pyrazolo[1,2-a]pyrazol]-l′-one]"
11,22,"COc1nc(N2CCC3(CC2)CN2CC[C@@H](c4cc(F)cc(F)c4)N2C3=O)ncc1F [Example 1.85, (S)-7′-(3,5-difluorophenyl)-1-(5-fluoro-4-methoxypyrimidin-2-yl)dihydro-1′H,3′H,5′H-spiro[piperidine-4,2′-pyrazolo[1,2-a]pyrazol]-1′-one]"
12,9,"N#Cc1ccc(N2CCC3(CC2)CN2CC[C@@H](c4cc(F)cc(F)c4)N2C3=O)c2ccnn12 [Example 2.2, (S)-4-(7′-(3,5-difluorophenyl)-1′-oxodihydro-l′H,3′H,5′H-spiro[piperidine-4,2′-pyrazolo[1,2-a]pyrazol]-1-yl)pyrazolo[1,5-a]pyridine-7-carbonitrile]"
13,333,"O=C1N2[C@H](c3cc(F)cc(F)c3)CCN2CC12CCN(c1nnc(-c3ccccc3)o1)CC2 [Example 1.82, (S)-7′-(3,5-difluorophenyl)-1-(5-phenyl-1,3,4-oxadiazol-2-yl)dihydro-1′H,3′H,5′H-spiro[piperidine-4,2′-pyrazolo[1,2-a]pyrazol]-1′-one]"

# Further lines, the compound ahead of its results:
row,SMILES,EC50 [nM]
1,"Cc1cn(-c2cc(N3CCC4(CC3)CN3CC[C@@H](c5cc(F)cc(F)c5)N3C4=O)ncn2)cn1 [Example 1.19, (S)-7′-(3,5-difluorophenyl)-1-(6-(4-methyl-1H-imidazol-1-yl)pyrimidin-4-yl)dihydro-1′H,3′H,5′H-spiro [piperidine-4,2′-pyrazolo[1,2-a]pyrazol]-1′-one]",37
2,"O=C1N2[C@H](c3cc(F)cc(F)c3)CCN2CC12CCN(c1cc(Br)cc(F)n1)CC2 [Example 1.60, (S)-1-(4-bromo-6-fluoropyridin-2-yl)-7′-(3,5-difluorophenyl)dihydro-1′H,3′H,5′H-spiro[piperidine-4,2′-pyrazolo[1,2-a]pyrazol]-1′-one]",17
3,"O=C1N2[C@H](c3cc(F)cc(F)c3)CCN2CC12CCN(c1ccnc(C3CC3)n1)CC2 [Example 1.46, (S)-1-(2-cyclopropylpyrimidin-4-yl)-7′-(3,5-difluorophenyl)dihydro-1′H,3′H,5′H-spiro[piperidine-4,2′-pyrazolo[1,2-a]pyrazol]-1′-one]",59
4,"CC(=O)c1cnc(N2CCC3(CC2)CN2CC[C@@H](c4cc(F)cc(F)c4)N2C3=O)cc1Cl [Example 1.62, (S)-1-(5-acetyl-4-chloropyridin-2-yl)-7′-(3,5-difluorophenyl)dihydro-1′H,3′H,5′H-spiro[piperidine-4,2′-pyrazolo[1,2-a]pyrazol]-1′-one]",20
5,"Cc1cc2c(N3CCC4(CC3)CN3CC[C@@H](c5cc(F)cc(F)c5)N3C4=O)ncnc2s1 [Example 1.67, (S)-7′-(3,5-difluorophenyl)-1-(6-methylthieno[2,3-d]pyrimidin-4-yl)dihydro-1′H,3′H,5′H-spiro[piperidine-4,2′-pyrazolo[1,2-a]pyrazol]-1′-one]",38
6,"O=C1N2[C@H](c3cc(F)cc(F)c3)CCN2CC12CCN(c1ncnc3ccsc13)CC2 [Example 1.13, (S)-7′-(3,5-difluorophenyl)-1-(thieno[3,2-d]pyrimidin-4-yl)dihydro-1′H,3′H,5′H-spiro[piperidine-4,2′-pyrazolo[1,2-a]pyrazol]-1′-one]",16
7,"Cc1nc(N2CCC3(CC2)CN2CC[C@@H](c4cc(F)cc(F)c4)N2C3=O)ccc1Cl [Example 11.1, (S)-1-(5-chloro-6-methylpyridin-2-yl)-7′-(3,5-difluorophenyl) dihydro-1′H,3′H,5′H-spiro [piperidine-4,2′-pyrazolo[1,2-α]pyrazol]-1′-one]",23
8,"O=C1N2[C@H](c3cc(F)cc(F)c3)CCN2CC12CCN(c1ncnc3scnc13)CC2 [Example 3.3, (S)-7′-(3,5-difluorophenyl)-1-(thiazolo[5,4-d]pyrimidin-7-yl)dihydro-1′H,3′H,5′H-spiro[piperidine-4,2′-pyrazolo[1,2-a]pyrazol]-1′-one]",14
9,"O=C1N2[C@H](c3cc(F)cc(F)c3)CCN2CC12CCN(c1ncnc3sccc13)CC2 [Example 1.68, (S)-7′-(3,5-difluorophenyl)-1-(thieno[2,3-d]pyrimidin-4-yl)dihydro-1′H,3′H,5′H-spiro [piperidine-4,2′-pyrazolo[1,2-a]pyrazol]-1′-one]",24
10,"CC(=O)c1cccc(N2CCC3(CC2)CN2CC[C@@H](c4cc(F)cc(F)c4)N2C3=O)n1 [Example 1.64, (S)-1-(6-acetylpyridin-2-yl)-7′-(3,5-difluorophenyl)dihydro-1′H,3′H,5′H-spiro[piperidine-4,2′-pyrazolo[1,2-a]pyrazol]-1′-one]",25
11,"O=C1N2[C@H](c3cc(F)cc(F)c3)CCN2CC12CCN(c1ccc(Cl)c3ccnn13)CC2 [Example 8.1, (S)-1-(4-chloropyrazolo[1,5-α]pyridin-7-yl)-7′-(3,5-difluorophenyl) dihydro-1′H,3′H,5′H-spiro [piperidine-4,2′-pyrazolo[1,2-α]pyrazol]-1′-one]",7
12,"Cn1nccc1-c1cc(N2CCC3(CC2)CN2CC[C@@H](c4cc(F)cc(F)c4)N2C3=O)ncn1 [Example 1.21, (S)-7′-(3,5-difluorophenyl)-1-(6-(1-methyl-1H-pyrazol-5-yl)pyrimidin-4-yl)dihydro-1′H,3′H,5′H-spiro[piperidine-4,2′-pyrazolo[1,2-a]pyrazol]-l′-one]",15
13,"O=C1N2[C@H](c3cc(F)cc(F)c3)CCN2CC12CCN(c1ncc3c(n1)CCCC3)CC2 [Example 1.32, (S)-7′-(3,5-difluorophenyl)-1-(5,6,7,8-tetrahydroquinazolin-2-yl)dihydro-1′H,3′H,5′H-spiro[piperidine-4,2′-pyrazolo[1,2-a]pyrazol]-1′-one]",288
14,"Cc1nccc(N2CCC3(CC2)CN2CC[C@@H](c4cc(F)cc(F)c4)N2C3=O)n1 [Example 1.45, (S)-7′-(3,5-difluorophenyl)-1-(2-methylpyrimidin-4-yl)dihydro-1′H,3′H,5′H-spiro[piperidine-4,2′-pyrazolo[1,2-a]pyrazol]-1′-one]",176
15,"CC(C)Oc1cc(N2CCC3(CC2)CN2CC[C@@H](c4cc(F)cc(F)c4)N2C3=O)ncc1C#N [Example 1.59, (S)-6-(7′-(3,5-difluorophenyl)-1′-oxodihydro-1′H,3′H,5′H-spiro[piperidine-4,2′-pyrazolo[1,2-a]pyrazol]-1-yl)-4-isopropoxynicotinonitrile]",18
16,"COc1ccc(F)cc1C(=O)N1CCC2(CC1)CN1CC[C@@H](c3cc(F)cc(F)c3)N1C2=O [Example 4.14, (S)-7′-(3,5-difluorophenyl)-1-(5-fluoro-2-methoxybenzoyl) dihydro-l′H,3′H,5′H-spiro[piperidine-4,2′-pyrazolo[1,2-a]pyrazol]-l′-one]",386
